Results taken from patent publication US8691800B2, “Quinoline derivatives as antibacterial agents” (Janssen Pharmaceutica N.V., priority 2005, dated 2014).
In brackets after ≈: the same amount, converted by molar mass.

Tests used:
[1] = test system: Staphylococcus aureus (ATCC29213); assay: Microtitre plate assay, IC90 for bacterial growth; type: cell-based; settings: 90% inhibitory concentration for bacterial growth, 24 hours at 37° C., resazurin; for IC90: Staphylococcus aureus, ATCC29213, 24 h, read-out: IC90 STA 29213
Description: (§1) The bacteria used in this study were grown overnight in flasks containing 100 ml Mueller-Hinton Broth (Becton Dickinson—cat. no. 275730) in sterile de-ionized water, with shaking, at 37° C. Stocks (0.5 ml/tube) were stored at 70° C. until use. Bacteria titrations were performed in microtiter plates and colony forming units (CFUs) were determined. In general, an inoculum level of approximately 100 CFUs was used for susceptibility testing.
(§2) Anti bacterial Susceptibility Testing: IC90 Determination
(§3) Flat-bottom, sterile 96-well plastic microtiter plates were filled with 180 μl of sterile deionized water, supplemented with 0.25% BSA. Subsequently, stock solutions (7.8× final test concentration) of compounds were added in 45 μl volumes in column 2. Serial five-fold dilutions (45 μl in 180 μl) were made directly in the microtiter plates from column 2 to reach column 11. Untreated control samples with (column 1) and without (column 12) inoculum were included in each microtiter plate. Depending on the bacteria type, approximately 10 to 60 CFU per well of bacteria inoculum (100 TCID50), in a volume of 100 μl in 2.8× Mueller-Hinton broth medium, was added to the rows A to H, except column 12. The same volume of broth medium without inoculum was added to column 12 in row A to H. The cultures were incubated at 37° C. for 24 hours under a normal atmosphere (incubator with open air valve and continuous ventilation). At the end of incubation, one day after inoculation, the bacterial growth was quantitated fluorometrically. Therefore resazurin (0.6 mg/ml) was added in a volume of 20 μl to all wells 3 hours after inoculation, and the plates were re-incubated overnight. A change in colour from blue to pink indicated the growth of bacteria. The fluorescence was read in a computer-controlled fluorometer (Cytofluor Biosearch) at an excitation wavelength of 530 nm and an emission wavelength of 590 nm. The % growth inhibition achieved by the compounds was calculated according to standard methods. The IC90 (expressed in μg/ml) was defined as the 90% inhibitory concentration for bacterial growth.

[2] = test system: Listeria monocytogenes (ATCC49594); assay: Microtitre plate assay, IC90 for bacterial growth; type: cell-based; settings: for IC90 LMO 49594: 90% inhibitory concentration for bacterial growth
Description: as §1, §2, §3

[3] = test system: Streptococcus pneumoniae (ATCC6305); assay: Microtitre plate assay, IC90 for bacterial growth; type: cell-based; settings: for IC90 SPN 6305: 90% inhibitory concentration for bacterial growth; for IC90: Streptococcus pneumoniae, ATCC6305, 90% inhibitory concentration for bacterial growth, read-out: IC90 SPN 6305
Description: as §1, §2, §3

[4] = test system: Streptococcus pyogens (ATCC8668); assay: Microtitre plate assay, IC90 for bacterial growth; type: cell-based; settings: for IC90 SPY 8668: 90% inhibitory concentration for bacterial growth; for IC90: Streptococcus, ATCC8668, 90% inhibitory concentration for bacterial growth, read-out: IC90 SPY 8668
Description: as §1, §2, §3

[5] = test system: Enterococcus faecalis (ATCC29212); assay: Microtitre plate assay, IC90 for bacterial growth; type: cell-based; settings: for IC90 EFA 29212: 90% inhibitory concentration for bacterial growth; for IC90: Enterococcus faecalis, ATCC29212, 90% inhibitory concentration for bacterial growth, read-out: IC90 EFA 29212
Description: as §1, §2, §3

[6] = test system: Streptococcus mutans (ATCC33402); assay: Microtitre plate assay, IC90 for bacterial growth; type: cell-based; settings: for IC90 SMU 33402: 90% inhibitory concentration for bacterial growth
Description: as §1, §2, §3

[7] = test system: Staphylococcus aureus (ATCC25923); assay: Microtitre plate assay, IC90 for bacterial growth; type: cell-based; settings: 90% inhibitory concentration for bacterial growth
Description: as §1, §2, §3

[8] = test system: methicilline resistant Staphylococcus aureus (MRSA) (a clinical isolate from the University of Antwerp); assay: Microtitre plate assay, IC90 for bacterial growth; type: cell-based; settings: 90% inhibitory concentration for bacterial growth; for IC90: Staphylococcus aureus, MRSA, read-out: IC90 STA RMETHIC
Description: as §1, §2, §3

[9] = test system: Bacillus subtilis (ATCC43639); assay: Microtitre plate assay, IC90 for bacterial growth; type: cell-based; settings: 90% inhibitory concentration for bacterial growth
Description: as §1, §2, §3

[10] = test system: Pseudomonas aeruginosa (ATCC27853); assay: Microtitre plate assay, IC90 for bacterial growth; type: cell-based; settings: for IC90 PAE 27853: 90% inhibitory concentration for bacterial growth; for IC90: Pseudomonas aeruginosa, ATCC27853, 90% inhibitory concentration for bacterial growth, read-out: IC90 PAE 27853
Description: as §1, §2, §3

COc1ccc2nc(OC)c(C(c3ccccc3)C3(c4cccc5ccccc45)CCN(C)CO3)cc2c1 (single isomer, unassigned) [Compound 10]
IC90 STA 29213 [1]: 12.7 mg/L (≈ 25.2 µM)
IC90 LMO 49594 [2]: 10.1 mg/L (≈ 20 µM)
IC90 SPN 6305 [3]: 1.1 mg/L (≈ 2.18 µM)
IC90 SPY 8668 [4]: 10.1 mg/L (≈ 20 µM)
IC90 EFA 29212 [5]: 12.7 mg/L (≈ 25.2 µM)
IC90 SMU 33402 [6]: 12.7 mg/L (≈ 25.2 µM)
IC90 STA 25923 [7]: 12.7 mg/L (≈ 25.2 µM)
IC90 STA RMETHIC [8]: 50.5 mg/L (≈ 100 µM)
IC90 BSU 43639 [9]: 2.5 mg/L (≈ 4.95 µM)
IC90 PAE 27853 [10]: 12.7 mg/L (≈ 25.2 µM)

COc1nc2ccc(C)cc2cc1C(c1ccccc1)C1(c2cccc3ccccc23)CCN(C)CO1 (single isomer, unassigned) [Compound 11]
IC90 STA 29213 [1]: 48.9 mg/L (≈ 100 µM)
IC90 LMO 49594 [2]: 48.9 mg/L (≈ 100 µM)
IC90 SPN 6305 [3]: 4.9 mg/L (≈ 10 µM)
IC90 SPY 8668 [4]: 19.5 mg/L (≈ 39.9 µM)
IC90 EFA 29212 [5]: 48.9 mg/L (≈ 100 µM)
IC90 SMU 33402 [6]: 48.9 mg/L (≈ 100 µM)
IC90 STA 25923 [7]: 48.9 mg/L (≈ 100 µM)
IC90 STA RMETHIC [8]: 48.9 mg/L (≈ 100 µM)
IC90 BSU 43639 [9]: 48.9 mg/L (≈ 100 µM)
IC90 PAE 27853 [10]: 48.9 mg/L (≈ 100 µM)

COc1nc2ccc(-c3ccco3)cc2cc1C(c1ccccc1)C1(c2cccc3ccccc23)CCN(C)CO1 (single isomer, unassigned) [Compound 12]
IC90 STA 29213 [1]: 13.6 mg/L (≈ 25.2 µM)
IC90 ([2]; Listeria monocytogenes, ATCC49594, 90% inhibitory concentration for bacterial growth, read-out: IC90 LMO 49594): 13.6 mg/L (≈ 25.2 µM)
IC90 SPN 6305 [3]: 12.1 mg/L (≈ 22.4 µM)
IC90 SPY 8668 [4]: 10.8 mg/L (≈ 20 µM)
IC90 EFA 29212 [5]: 13.6 mg/L (≈ 25.2 µM)
IC90 ([6]; Streptococcus mutans, ATCC33402, 90% inhibitory concentration for bacterial growth, read-out: IC90 SMU 33402): 10.8 mg/L (≈ 20 µM)
IC90 STA 25923 [7]: 13.6 mg/L (≈ 25.2 µM)
IC90 STA RMETHIC [8]: 13.6 mg/L (≈ 25.2 µM)
IC90 PAE 27853 [10]: 13.6 mg/L (≈ 25.2 µM)

COc1nc2ccc(Br)cc2cc1C(c1ccc(Cl)cc1)C1(c2cccc3ccccc23)CCN(C)CO1 (single isomer, unassigned) [Compound 13]
IC90 [1]: 14.8 mg/L (≈ 25.2 µM)
IC90 [3]: 13.2 mg/L (≈ 22.5 µM)
IC90 [4]: 14.8 mg/L (≈ 25.2 µM)
IC90 [5]: 14.8 mg/L (≈ 25.2 µM)
IC90 [10]: 14.8 mg/L (≈ 25.2 µM)

COc1nc2ccc(Br)cc2cc1C(c1ccccc1)C1(c2cccc3ccccc23)CC[N+](C)(C)CO1.[I-] (single isomer, unassigned) [Compound 17]
IC90 STA 29213 [1]: 1.8 mg/L
IC90 SPN 6305 [3]: 1.8 mg/L
IC90 SPY 8668 [4]: 1.8 mg/L
IC90 EFA 29212 [5]: 1.8 mg/L
IC90 STA RMETHIC [8]: 2.3 mg/L
IC90 PAE 27853 [10]: 2.0 mg/L
melting point: 245 °C

COc1nc2ccc(Br)cc2cc1C(c1ccccc1)C1(c2cccc3ccccc23)CC[N+](C)(C)CO1.[I-] (single isomer, unassigned) [Compound 18]
IC90 [1]: 2.3 mg/L
IC90 [3]: 1.8 mg/L
IC90 [4]: 1.8 mg/L
IC90 [5]: 1.8 mg/L
IC90 [8]: 2.3 mg/L
IC90 [10]: 2 mg/L
melting point: 228 °C

CC[N+]1(C)CCC(c2cccc3ccccc23)(C(c2ccccc2)c2cc3cc(Br)ccc3nc2OC)OC1.[I-] (single isomer, unassigned) [Compound 19]
IC90 [1]: 0.4 mg/L
IC90 SPN 6305 [3]: 0.5 mg/L
IC90 [4]: 1.8 mg/L
IC90 [5]: 1.8 mg/L
IC90 [8]: 2.3 mg/L
IC90 [10]: 3.7 mg/L
melting point: 236 °C

CC[N+]1(C)CCC(c2cccc3ccccc23)(C(c2ccccc2)c2cc3cc(Br)ccc3nc2OC)OC1.[I-] (single isomer, unassigned) [Compound 20]
IC90 STA 29213 [1]: 0.5 mg/L
IC90 SPN 6305 [3]: 1.8 mg/L
IC90 SPY 8668 [4]: 2.1 mg/L
IC90 EFA 29212 [5]: 1.8 mg/L
IC90 STA RMETHIC [8]: 2.3 mg/L
IC90 PAE 27853 [10]: 4.6 mg/L
melting point: 215 °C

COc1nc2ccc(Br)cc2cc1C(c1ccc(Cl)cc1)C1(c2cccc3ccccc23)CCN(C)CO1 (single isomer, unassigned) [Compound 21]
IC90 STA 29213 [1]: 14.8 mg/L (≈ 25.2 µM)
IC90 SPN 6305 [3]: 14.8 mg/L (≈ 25.2 µM)
IC90 SPY 8668 [4]: 14.8 mg/L (≈ 25.2 µM)
IC90 EFA 29212 [5]: 14.8 mg/L (≈ 25.2 µM)
IC90 PAE 27853 [10]: 14.8 mg/L (≈ 25.2 µM)
melting point: 201 °C
